Patent publication US4940715A, “5H-pyrazolo[4,3-A] quinolizin-5-one compounds exhibiting therapeutic activities” (Kissei Pharmaceutical Co., Ltd., priority 1988, dated 1990)

Assays:
[1] = test system: IgG secreted into culture supernatant by BALB/c mouse spleen cells; assay: Determination of IgG produced in in vitro culture of spleen cells (adoptive secondary immune response against DNP-As), ELISA; assay type: cell-based; details: 96 h, spleen cells 5×10^6 cells/ml, 4 days, 37° C.; for inhibition at 10 µg/mL: 10 μg/ml
Experimental: (§1) The antiallergic activities of the 5H-pyrazolo[4,3-a]quinolizin-5-one compounds of formula (I) are also confirmed by inhibition of the rat homologous passive cutaneous anaphylaxis (hereinafter referred to as PCA) reaction.
(§2) Determination of Igs produced in in vitro culture
(§3) BALB/c mice were immunized intraperitoneally with 5 μg of DNP-As adsorbed on 4 mg aluminum hydroxide gel. Four weeks after the immunization, the spleens were excised from the mice and 5×10^7 spleen cells were transferred intravenously into the recipient mice which had been exposed to 600 rad of X-ray irradiation. Immediately after the cell transfer, the recipients were then immunized intraperitoneally with 5 μg of DNP-As adsorbed on 4 mg aluminum hydroxide gel to induce adoptive secondary immune response. Further 4 weeks after the immunization of recipients, the spleens were excised from them and the spleen cell suspensions containing 5×10^6 cells/ml were cultured with or without a compound to be tested in 96-well micro-titer plates at 37° C. for 4 days. IgE and IgG secreted into the culture supernatant was each determined correspondingly by enzyme-linked immunosolvent assay and the inhibitory effect was calculated according to the following equation. [formula]

[2] = test system: IgE secreted into culture supernatant by BALB/c mouse spleen cells; assay: Determination of IgE produced in in vitro culture of spleen cells (adoptive secondary immune response against DNP-As), ELISA; assay type: cell-based; details: 96 h, spleen cells 5×10^6 cells/ml, 4 days, 37° C.; for inhibition at 10 µg/mL: 10 μg/ml
Experimental: as §1, §2, §3

## CCCc1nn(C(C)=O)c2c(C#N)c(=O)n3ccccc3c12 [S-26, 3-Acetyl-4-cyano-1-propyl-5H-pyrazolo[4,3-a]quinolizin-5-one]
[1]
  inhibition at 10 µg/mL: 18%
[2]
  inhibition at 10 µg/mL: 55%

## CC(=O)n1nc(CC(C)C)c2c1c(C#N)c(=O)n1ccccc21 [S-38]
[1]
  inhibition at 10 µg/mL: 4%
[2]
  inhibition at 10 µg/mL: 40%

## CCc1nn(C(C)=O)c2c(C#N)c(=O)n3ccccc3c12 [S-31]
[1]; 20 μg/ml
  inhibition at 20 µg/mL: 33%
[2]; 20 μg/ml
  inhibition at 20 µg/mL: 75%
